The source of these data is the SangsterLogP compilation.

Usually logD stands for the decadic logarithm of the distribution of all forms, ionised or not, between an organic phase and buffer at a given pH. A low value points to a more hydrophilic compound.

One series in a line: method code SF, from DOI: 10.1007/bf01990207, PMID: 819289. The conditions noted are these: pH 7.4.
`CC(C)CNC(=O)CNC(=O)C=[N+]=[N-]`: the logD is 0.37.

The compound `CNC(=O)CNC(=O)C=[N+]=[N-]` displayed a pH-dependent lipophilicity (logD) of -0.87.

Compound `[N-]=[N+]=CC(=O)NCC(=O)NN` registered a logD of -0.76.

With `CCOC(=O)CNC(=O)C=[N+]=[N-]`, the logD was -0.08.

In the case of `[N-]=[N+]=CC(=O)NCC(=O)NCCO`, the logD is -1.35.

Consider `[N-]=[N+]=CC(=O)NCC(N)=O`, for which the logD is -1.26.

`CC(C)NC(=O)CNC(=O)C=[N+]=[N-]` returned a logD of -0.41.

The compound `CCCNC(=O)CNC(=O)C=[N+]=[N-]` displayed a logD of -0.24.

As to `CCNC(=O)CNC(=O)C=[N+]=[N-]`, the logD is -0.62.

Another series in a line: method code SF-AS, from DOI: 10.1007/bf01990207, PMID: 819289. Particulars: pH 7.4.
`CCCCCCNC(=O)CNC(=O)C=[N+]=[N-]` had a log distribution coefficient (logD) of 1.51.
